These are literature values, as cited in article PMC9781020, “Anti-Mycobacterial N-(2-Arylethyl)quinolin-3-amines Inspired by Marine Sponge-Derived Alkaloid” (Molecules, 2022).

For the series, the system named is drug-sensitive M. tuberculosis H37Rv and extensively drug-resistant M. tuberculosis strains. The note with it: cited from earlier work.

As usually defined, the MIC is the lowest concentration that inhibits growth of the organism. With `COC1=Cc2ccnc3c(NCCc4ccccc4)cnc(c23)C1=O` [Compound 1, 3-(phenethylamino)demethyl(oxy)aaptamine, reference compound], the MIC is 1.5 to 6.0 µM.
